Drawing on patent US9957264B2 (Merck Sharp & Dohme Corp., priority 2013, dated 2018), this text covers IC50 for eight compounds.

The target in the assay is JAK1 (recombinant purified GST-tagged catalytic domain) (Homo sapiens (Human), UniProt P23458). The experiment in a line: Jak Biochemical HTRF Assay (JAK1). To be noted: [ATP] 31.8 μM. On the procedure: Jak Biochemical HTRF Assay Protocol
Chain of JAK1 (recombinant purified GST-tagged catalytic domain) (P23458 875-1153): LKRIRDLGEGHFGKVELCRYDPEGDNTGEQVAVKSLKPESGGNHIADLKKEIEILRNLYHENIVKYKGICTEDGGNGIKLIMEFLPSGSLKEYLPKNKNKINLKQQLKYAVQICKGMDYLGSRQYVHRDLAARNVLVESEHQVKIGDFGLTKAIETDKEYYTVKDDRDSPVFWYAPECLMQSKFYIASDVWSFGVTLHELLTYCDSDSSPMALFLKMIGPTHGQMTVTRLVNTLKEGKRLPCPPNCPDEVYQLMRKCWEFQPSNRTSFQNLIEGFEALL
The ability of compounds to inhibit the activity of JAK1, JAK2, JAK3, and Tyk2 was measured using a recombinant purified GST-tagged catalytic domain for each enzyme (Invitrogen JAK1 #M4290, JAK2 #M4290, JAK3 #M4290, Tyk2 #M4290) in an HTRF format biochemical assay. The reactions employed a common peptide substrate, LCB-[…]-NH2 (in-house). The basic assay protocol is as follows: First, 250 nL of diluted compounds in DMSO were dispensed into the wells of a dry 384-well Black plate (Greiner #781076) using a Labcyte Echo 555 acoustic dispenser. Subsequent reagent additions employed an Agilent Bravo. […] After equilibration, 2 μL of 10×ATP in 1× assay buffer was added to initiate the kinase reaction and the plates were shaken and then incubated at room temperature for 120 minutes. At the end of the incubation, 20 μL of 2× stop buffer (streptavidin-Dylight 650 (Thermo #84547B/100 mL), Eu-tagged pY20 antibody (Perkin Elmer #AD0067), EDTA, HEPES, and Triton) was added to quench the reaction. Plates were shaken and centrifuged and then incubated 60 minutes at room temperature and then read on a Perkin Elmer Envision (λex=337 nm, λem=665 and 615 nm, TRF delay time=20 μs). HTRF signal=10,000*665 nm reading/615 nm reading. After normalization to untreated controls, the percent inhibition of the HTRF signal at each compound concentration was calculated. The plot of percent inhibition versus the log of compound concentration was fit with a 4-parameter dose response equation to calculate IC50 values.
Final reaction conditions were:
Examples of the instant invention were evaluated in JAK1 and JAK2 in vitro binding assays as described above. The following table tabulates the JAK1 IC50 values and JAK2 IC50 values disclosed for the instant invention.
Background: Time-resolved FRET reads energy transfer from a long-lived donor to a nearby acceptor.
By IC50 is commonly meant the point on the concentration scale where inhibition reaches its midpoint. Take `CCOC(=O)C(C)(C)N(C)S(=O)(=O)c1ccc(Nc2nn(C3(CC#N)CCCC3)c3cc[nH]c(=O)c23)cc1` [Example 5-139, ethyl 2-(4-((1-(1-(cyanomethyl)cyclopentyl)-4-oxo-4,5-dihydro-1H-pyrazolo[4,3-c]pyridin-3-yl)amino)-N-methylphenylsulfonamido)-2-methylpropanoate]: the concentration for half-maximal inhibition (IC50) stood at 0.76 nM. The figure for `CN(C)S(=O)(=O)c1ccc(Nc2nn([C@]3(CC#N)CC[C@@H](N4CC(F)C4)CC3)c3cc[nH]c(=O)c23)cc1` [Example 18-29, Trans 4-((1-(1-(cyanomethyl)-4-(3-fluoroazetidin-1-yl)cyclohexyl)-4-oxo-4,5-dihydro-1H-pyrazolo[4,3-c]pyridin-3-yl)amino)-N,N-dimethylbenzenesulfonamide] is 0.1 nM; for `Cc1cc(Nc2nn([C@]3(CC#N)CC[C@@H](C(=O)OC(C)(C)C)OC3)c3cc[nH]c(=O)c23)ccc1C(=O)N1CCC(O)(C(F)(F)F)C1` (single isomer, unassigned) [Example 5-161, (2S,5S)-tert-butyl 5-(cyanomethyl)-5-(3-((4-((S or R)-3-hydroxy-3-(trifluoromethyl)pyrrolidine-1-carbonyl)-3-methylphenyl)amino)-4-oxo-4,5-dihydro-1H-pyrazolo[4,3-c]pyridin-1-yl)tetrahydro-2H-pyran-2-carboxylate] it is 0.29 nM; for `CC(OC(=O)N1CCC(CC#N)(n2nc(Nc3ccc(S(=O)(=O)N(C)C)cc3)c3c(=O)[nH]ccc32)CC1)C(F)(F)F` (centres unmarked) [Example 11-8, 1,1,1-trifluoropropan-2-yl 4-(cyanomethyl)-4-(3-((4-(N,N-dimethylsulfamoyl)phenyl)amino)-4-oxo-4,5-dihydro-1H-pyrazolo[4,3-c]pyridin-1-yl)piperidine-1-carboxylate] it is 0.18 nM. The figure for `CC1(C)Cc2cc(Nc3nn([C@]4(CC#N)CCCOC4)c4cc[nH]c(=O)c34)ccc2C1(O)C(F)(F)F` (single isomer, unassigned) [Example 5-120, 2-((S)-3-(3-((S or R)-1-hydroxy-2,2-dimethyl-1-(trifluoromethyl)-2,3-dihydro-1H-inden-5-yl)amino)-4-oxo-4,5-dihydro-1H-pyrazolo[4,3-c]pyridin-1-yl)tetrahydro-2H-pyran-3-yl)acetonitrile] is 0.07 nM. Turning to `CC(C)(C)OC(=O)[C@@H]1CC[C@@](CC#N)(n2nc(Nc3ccc(C(O)(C(C)(C)C)C(F)(F)F)cc3)c3c(=O)[nH]ccc32)CO1` (single isomer, unassigned) [Example 5-166, (2S,5S)-tert-butyl 5-(cyanomethyl)-5-(4-oxo-3-((4-((S or R)-1,1,1-trifluoro-2-hydroxy-3,3-dimethylbutan-2-yl)phenyl)amino)-4,5-dihydro-1H-pyrazolo[4,3-c]pyridin-1-yl)tetrahydro-2H-pyran-2-carboxylate], the concentration for half-maximal inhibition (IC50) turned out to be 1.28 nM. On to `N#CC[C@]1(n2nc(Nc3ccc4c(c3)CN(C3CCNCC3)S4(=O)=O)c3c(=O)[nH]ccc32)CCOC[C@H]1F` (single isomer, unassigned) [Example 5-271, 2-[(3S,4S or 3R,4R)-4-(3-{[1,1-dioxo-2-(piperidin-4-yl)-3H-1,2-benzothiazol-5-yl]amino}-4-oxo-5H-pyrazolo[4,3-c]pyridin-1-yl)-3-fluorooxan-4-yl]acetonitrile], for which the IC50 came out at 0.25 nM. The figure for `CC(C)(C)OC(=O)[C@@H]1CC[C@@](CC#N)(n2nc(Nc3ccc4nc(N5CCOCC5)ccc4c3)c3c(=O)[nH]ccc32)CO1` [Example 5-227, (2S,5S)-tert-butyl 5-(cyanomethyl)-5-(3-((2-morpholinoquinolin-6-yl)amino)-4-oxo-4,5-dihydro-1H-pyrazolo[4,3-c]pyridin-1-yl)tetrahydro-2H-pyran-2-carboxylate] is 0.15 nM.
